Columns and labels:
[1] = tested on: rat oligodendrocyte progenitor cells; test: Promotive activity of rat oligodendrocyte progenitor cell differentiation-2 (immunostaining of MBP); type: cell-based; settings: Test 3; vitamin D derivative 2 μM, T3 30 nM; 4 days
Method in brief: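 Vitamin D derivatives scored as symbols for promoting differentiation, read out by MBP immunostaining. OPCs taken from supernatant after about 22 h shaking (37 °C, 200 rpm) in separation medium.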

[2] = Evaluation of calcium increasing action in normal mice (serum calcium); type: in vivo, mouse; settings: for Serum calcium concentration: repeated oral once a day, 2 weeks, C57BL/6J mice; for Calcium concentration Fluctuation range: vs vehicle 8.9 mg/dL
Description: After acclimatizing C57BL/6J mice (7 weeks old, male) for 1 week, the mice were divided into groups of 5 mice based on the body weight, and administration of the compound or vehicle was started. The administration solution used was a compound (in ethanol) or ethanol diluted 100-fold with 0.1% Trion X-100 (SIGMA #X100-100ML)/saline, and the repeated oral administration at once a day was performed. After administration of 2 weeks, euthanasia was performed by collecting all blood under general anesthesia.

[3] = Evaluation of brain penetration in mice (blood and brain concentration at brain Cmax); type: in vivo, mouse; settings: 0.2 mg/kg single oral dose, C57BL/6J mice
Method in brief: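 Male C57BL/6J mice (8 weeks, n=3) dosed orally once at 1 […] mg/kg; plasma and brain collected at 0.25, 0.5, 1, 2, 4 and 8 h. Compound extracted with acetonitrile from brain homogenate and plasma, quantified by LC/MS/MS.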

[4] = tested on: oligodendrocyte progenitor cells derived from VDR knockout mice; test: Oligodendrocyte progenitor cell differentiation using VDR knockout mice (MBP immunostaining); type: cell-based; settings: 1000 nM, 4 days, VDR KO mouse OPC
Description: The promotive activity of oligodendrocyte progenitor cell (OPC) differentiation of the vitamin D derivatives was evaluated by using oligodendrocyte progenitor cells derived from VDR knockout mice. (1) Collection of Neural Stem Cells from VDR KO Mouse […]
The oligodendrocyte progenitor cells derived from VDR KO mouse prepared were suspended in oligodendrocyte progenitor cell differentiation medium (2% B27 (Thermo Fisher Scientific #17504-044)/1% penicillin-streptomycin (Invitrogen #15140-122)/10 ng/mL CNTF (PeproTech #AF-450-13)/DMEM/F-12, no glutamine (Gibco #21331-020)), and were seeded on a 96-well plate coated with poly-L-ornithine (FUJIFILM Wako Pure Chemical Corporation #163-27421) under the condition of 2.0×10^4 cells/well. […] Subsequently, images of each well were acquired using a fluorescence microscope (KEYENCE CORPORATION #BZ-X800), the number of MBP-positive cells and Hoechst 33342-positive cells (total cells) were measured using an image analysis application (KEYENCE CORPORATION #BZ-X800 Analyzer), and then the ratio of number of MBP-positive cells/number of Hoechst33342-positive cells (total cells) was calculated, and then the ratio of those to the DMSO group was calculated as a result. […]

C[C@H](CN1CCOC[C@H]1C)[C@H]1CC[C@H]2/C(=C/C=C3C[C@@H](O)C[C@H](O)C3)CCC[C@]12C [Compound G005, (1R,3R)-5-(2-((1R,3aS,7aR,E)-7a-methyl-1-((S)-1-((R)-3-methylmorpholino)propan-2-yl)octahydro-4H-inden-4-ylidene)ethylidene)cyclohexane-1,3-diol]
Mean (number of MBP-positive cells/number of Hoechst33342-positive cells) [1]: 0.34 | Serum calcium concentration ([2]; 20 μg/kg): 9.1 mg/dL | Calcium concentration Fluctuation range ([2]; 20 μg/kg): 0.2 mg/dL | Serum calcium concentration ([2]; 60 μg/kg): 9.1 mg/dL | Calcium concentration Fluctuation range ([2]; 60 μg/kg): 0.2 mg/dL | Serum calcium concentration ([2]; 200 μg/kg): 9.0 mg/dL | Calcium concentration Fluctuation range ([2]; 200 μg/kg): 0.1 mg/dL | Concentration in blood at brain Cmax ([3]; n=3): 84.1 ± 9.7 nM | Concentration in brain at brain Cmax ([3]; n=3): 140.8 ± 17.6 pmol/g | Kp ([3]; male, C57BL/6J, mouse, brain/plasma, po, 0.2 mg/kg, read-out: Concentration ratio in brain/in blood at brain Cmax): 1.67 | Mean (ratio MBP-positive cells/Hoechst33342-positive cells, relative to the DMSO group = 100.0) [4]: 215.1

Source: patent US20230348376A1 (TEIJIN PHARMA LIMITED, priority 2020, published 2023)
